Counter-ions that a name gives are not always drawn.
Each molecule was assayed against T1, HCV polymerase (Hepatitis C virus genotype 1b, UniProt P26663) (assay: biochemical).
T1 construct: a region encoding NS5B (J Virol 1991 March, 65(3), 1105-13, 544 amino acids after deletion of 47 amino acids on the C-terminal); 6xHis (C); made in house; host or cells: Escherichia coli
Parameters: species or system HCV BK strain
Method in brief: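 His-tagged NS5B (BK strain, 47-aa C-terminal deletion, E. coli-expressed) at 0.5 μg/ml copied 5 μg/ml run-off RNA bearing the HCV 3′ UTR with 2 μM UTP plus [3H]UTP, 50 μM ATP/GTP, in pH 7.5 Tris with 5 mM MgCl2, 25 °C, 90 min. TCA-precipitated RNA was counted and IC50 calculated.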

T1 sequence (P26663 2420-2963): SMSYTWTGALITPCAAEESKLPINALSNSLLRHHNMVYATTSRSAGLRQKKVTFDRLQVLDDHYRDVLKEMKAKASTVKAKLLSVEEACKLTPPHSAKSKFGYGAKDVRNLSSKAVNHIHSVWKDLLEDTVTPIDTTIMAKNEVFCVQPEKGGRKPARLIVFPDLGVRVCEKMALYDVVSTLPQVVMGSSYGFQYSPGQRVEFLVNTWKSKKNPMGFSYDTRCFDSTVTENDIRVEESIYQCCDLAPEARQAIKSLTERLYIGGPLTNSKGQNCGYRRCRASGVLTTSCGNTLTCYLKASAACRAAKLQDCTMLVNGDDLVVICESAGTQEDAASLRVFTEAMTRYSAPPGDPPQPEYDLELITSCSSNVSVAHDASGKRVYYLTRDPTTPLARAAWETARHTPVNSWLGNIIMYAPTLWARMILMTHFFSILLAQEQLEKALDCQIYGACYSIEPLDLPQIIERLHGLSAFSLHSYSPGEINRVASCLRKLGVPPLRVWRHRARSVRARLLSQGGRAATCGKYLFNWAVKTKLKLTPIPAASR

Row | SMILES | IC50
1 | CC1CCCCN1C(=O)CN1CCn2c(c(C3CCCCC3)c3ccc(C(=O)O)cc32)-c2ccccc21 (stereo not drawn) [Example 1-137, 13-cyclohexyl-5-[2-(2-methylpiperidin-1-yl)-2-oxoethyl]-6,7-dihydro-5H-benzo[5,6][1,4]diazepino[7,1-a]indole-10-carboxylic acid] | < 0.1 µM
2 | O=C(O)c1ccc2c(C3CCCCC3)c3n(c2c1)CCN(CC(=O)N1CCc2ccccc2C1)c1ccccc1-3 [Example 1-138, 13-cyclohexyl-5-[2-(3,4-dihydro-1H-isoquinolin-2-yl)-2-oxoethyl]-6,7-dihydro-5H-benzo[5,6][1,4]diazepino[7,1-a]indole-10-carboxylic acid monohydrochloride] | < 0.1 µM
3 | O=C(O)c1ccc2c(C3CCCCC3)c3n(c2c1)CCN(CC(=O)N1CCCC2CCCCC21)c1ccccc1-3 (stereo not drawn) [Example 1-139, 13-cyclohexyl-5-[2-(octahydroquinolin-1-yl)-2-oxoethyl]-6,7-dihydro-5H-benzo[5,6][1,4]diazepino[7,1-a]indole-10-carboxylic acid monohydrochloride] | < 0.1 µM
4 | O=C(O)c1ccc2c(C3CCCCC3)c3n(c2c1)CCN(CC(=O)N1Cc2ccccc2C1)c1ccccc1-3 [Example 1-140, 13-cyclohexyl-5-[2-(1,3-dihydroisoindol-2-yl)-2-oxoethyl]-6,7-dihydro-5H-benzo[5,6][1,4]diazepino[7,1-a]indole-10-carboxylic acid monohydrochloride] | < 0.1 µM
5 | O=C(O)c1ccc2c(C3CCCCC3)c3n(c2c1)CCN(CC(=O)N1CCC2CCCCC2C1)c1ccccc1-3 (stereo not drawn) [Example 1-141, 13-cyclohexyl-5-[2-(octahydroisoquinolin-2-yl)-2-oxoethyl]-6,7-dihydro-5H-benzo[5,6][1,4]diazepino[7,1-a]indole-10-carboxylic acid monohydrochloride] | < 0.1 µM
6 | O=C(O)c1ccc2c(C3CCCCC3)c3n(c2c1)CCN(CCN1CCc2ccccc2C1)c1ccccc1-3 [Example 1-142, 13-cyclohexyl-5-[2-(3,4-dihydro-1H-isoquinolin-2-yl)ethyl]-6,7-dihydro-5H-benzo[5,6][1,4]diazepino[7,1-a]indole-10-carboxylic acid dihydrochloride] | < 0.1 µM
7 | CC1CCCN(CCN2CCn3c(c(C4CCCCC4)c4ccc(C(=O)O)cc43)-c3ccccc32)C1 (stereo not drawn) [Example 1-143, 13-cyclohexyl-5-[2-(3-methylpiperidin-1-yl)ethyl]-6,7-dihydro-5H-benzo[5,6][1,4]diazepino[7,1-a]indole-10-carboxylic acid dihydrochloride] | < 0.1 µM
8 | O=C(O)c1ccc2c(C3CCCCC3)c3n(c2c1)CCN(CCN1CCCC2CCCCC21)c1ccccc1-3 (stereo not drawn) [Example 1-144, 13-cyclohexyl-5-[2-(octahydroquinolin-1-yl)ethyl]-6,7-dihydro-5H-benzo[5,6][1,4]diazepino[7,1-a]indole-10-carboxylic acid dihydrochloride] | < 0.1 µM
9 | O=C(O)c1ccc2c(C3CCCCC3)c3n(c2c1)CCN(CCN1Cc2ccccc2C1)c1ccccc1-3 [Example 1-145, 13-cyclohexyl-5-[2-(1,3-dihydroisoindol-2-yl)ethyl]-6,7-dihydro-5H-benzo[5,6][1,4]diazepino[7,1-a]indole-10-carboxylic acid dihydrochloride] | < 0.1 µM
10 | O=C(O)c1ccc2c(C3CCCCC3)c3n(c2c1)CCN(CCN1CCC2CCCCC2C1)c1ccccc1-3 (stereo not drawn) [Example 1-146, 13-cyclohexyl-5-[2-(octahydroisoquinolin-2-yl)ethyl]-6,7-dihydro-5H-benzo[5,6][1,4]diazepino[7,1-a]indole-10-carboxylic acid dihydrochloride] | < 0.1 µM
11 | CN(C)CCCN1CCn2c(c(C3CCCCC3)c3ccc(C(=O)O)cc32)-c2ccccc21 [Example 1-148, 13-cyclohexyl-5-(3-dimethylaminopropyl)-6,7-dihydro-5H-benzo[5,6][1,4]diazepino[7,1-a]indole-10-carboxylic acid dihydrochloride] | < 0.1 µM
12 | O=C(O)c1ccc2c(C3CCCCC3)c3n(c2c1)CCN(CCN1CCCCC1)c1c(F)cccc1-3 [Example 1-149, 13-cyclohexyl-4-fluoro-5-[2-(piperidin-1-yl)ethyl]-6,7-dihydro-5H-benzo[5,6][1,4]diazepino[7,1-a]indole-10-carboxylic acid dihydrochloride] | < 0.1 µM
13 | CC(C)C1CCN(CCN2CCn3c(c(C4CCCCC4)c4ccc(C(=O)O)cc43)-c3ccccc32)CC1 [Example 1-150, 13-cyclohexyl-5-[2-(4-isopropylpiperidin-1-yl)ethyl]-6,7-dihydro-5H-benzo[5,6][1,4]diazepino[7,1-a]indole-10-carboxylic acid dihydrochloride] | < 0.1 µM
14 | COC1CCCN(CCN2CCn3c(c(C4CCCCC4)c4ccc(C(=O)O)cc43)-c3ccccc32)C1 (stereo not drawn) [Example 1-151, 13-cyclohexyl-5-[2-(3-methoxypiperidin-1-yl)ethyl]-6,7-dihydro-5H-benzo[5,6][1,4]diazepino[7,1-a]indole-10-carboxylic acid dihydrochloride] | < 0.1 µM
15 | CC(C)(C)OC(=O)N1CCCC(CN2CCn3c(c(C4CCCCC4)c4ccc(C(=O)O)cc43)-c3ccccc32)C1 (stereo not drawn) [Example 1-152, 5-(1-tert-butoxycarbonylpiperidin-3-ylmethyl)-13-cyclohexyl-6,7-dihydro-5H-benzo[5,6][1,4]diazepino[7,1-a]indole-10-carboxylic acid] | < 0.1 µM
16 | CCN1CCCC(CN2CCn3c(c(C4CCCCC4)c4ccc(C(=O)O)cc43)-c3ccccc32)C1 (stereo not drawn) [Example 1-153, 13-cyclohexyl-5-(1-ethylpiperidin-3-ylmethyl)-6,7-dihydro-5H-benzo[5,6][1,4]diazepino[7,1-a]indole-10-carboxylic acid dihydrochloride] | < 0.1 µM
17 | O=C(O)c1ccc2c(C3CCCCC3)c3n(c2c1)CCN(CCN1CCCCCCC1)c1ccccc1-3 [Example 1-154, 5-[2-(azocan-1-yl)ethyl]-13-cyclohexyl-6,7-dihydro-5H-benzo[5,6][1,4]diazepino[7,1-a]indole-10-carboxylic acid] | < 0.1 µM
18 | O=C(O)c1ccc2c(C3CCCCC3)c3n(c2c1)CCN(CCN1CCCCCCCC1)c1ccccc1-3 [Example 1-155, 5-[2-(azonan-1-yl)ethyl]-13-cyclohexyl-6,7-dihydro-5H-benzo[5,6][1,4]diazepino[7,1-a]indole-10-carboxylic acid] | < 0.1 µM
19 | CC1CCCCN1CCN1CCn2c(c(C3CCCCC3)c3ccc(C(=O)O)cc32)-c2ccccc21 (stereo not drawn) [Example 1-156, 13-cyclohexyl-5-[2-(2-methylpiperidin-1-yl)ethyl]-6,7-dihydro-5H-benzo[5,6][1,4]diazepino[7,1-a]indole-10-carboxylic acid] | < 0.1 µM
20 | O=C(O)c1ccc2c(C3CCCCC3)c3n(c2c1)CCN(CCC1CCN(C2CCCC2)CC1)c1ccccc1-3 [Example 1-157, 13-cyclohexyl-5-[2-(1-cyclopentylpiperidin-4-yl)ethyl]-6,7-dihydro-5H-benzo[5,6][1,4]diazepino[7,1-a]indole-10-carboxylic acid dihydrochloride] | < 0.1 µM
21 | O=C(O)c1ccc2c(C3CCCCC3)c3n(c2c1)CCN(CC(=O)N1CCC(C(F)(F)F)CC1)c1ccccc1-3 [Example 1-158, 13-cyclohexyl-5-[2-oxo-2-(4-trifluoromethylpiperidin-1-yl)ethyl]-6,7-dihydro-5H-benzo[5,6][1,4]diazepino[7,1-a]indole-10-carboxylic acid monohydrochloride] | < 0.1 µM
